How the values were obtained:
[1] = LC-MS of plasma amino acids and thyroxine in rats (Example 2); assay type: in vivo, rat; details: 7 days
Method: (§1) In an initial experiment, two dose groups of six animals per group received either 5 or 50 mg/kg b.i.d., and a further group received vehicle only, as a control. A follow-up experiment was performed to explore dose-response and the selected doses were 15 and 50 mg/kg b.i.d., again plus control.
In both experiments, urine was collected from each animal by clean-catch after the final dose on day 7, and cerebrospinal fluid (CSF) and plasma were collected (terminal samples) on day 8. Aliquots of the CSF and plasma samples from each individual were submitted for LC-MS analyses of bioanalytes. Three different separation methods were run, with MS analyses in both positive and negative ion modes, to enable resolution of relative quantification of the bioanalytes.

[2] = Weight gain in rats over seven-day dosing (Example 3); assay type: in vivo, rat; details: 7 days
Method: as §1
Body weights of individual rats were recorded before and after the seven-day dosing period.

[3] = Body weight, food consumption and liver weight in diet-induced obese (DIO) rat model (Example 4); assay type: in vivo; details: for liver weight: rat, in vivo, po
Method: Male Sprague-Dawley rats were acclimated for 7 weeks on a high-fat diet before commencement of dose administration, and maintained on the same diet throughout the subsequent dosing period of 23 days. The high-fat diet (D12492 commercially available from Research Diets, Inc., New Brunswick, N.J.) was one in which at least 60% of calories are derived from fat.
Dose levels of gemfibrozil (50 mg/kg) and sibutramine (10 mg/kg) were selected based on published reports. All treatments were administered once daily by oral gavage in 10 ml vehicle. A vehicle-only control was also administered. Each treatment group consisted of 10 animals.
Body weight of each animal was measured weekly during the 7-week acclimation period and five times weekly during the 23-day dosing period. Food consumption was recorded twice weekly during the 7-week acclimation period and five times weekly during the 23-day dosing period.
Animals were sacrificed and liver weights measured at conclusion of the study.

[4] = Diabetic-prone (db/db) mouse model with high-fat diet (Example 7); assay type: in vivo; details: db/db mice, high-fat diet, 15, 50 and 100 mg/kg once daily
Method: The fibrate PPARα agonist fenofibrate (50 mg/kg) and the PPARγ agonist rosiglitazone (10 mg/kg) were used as reference controls for the study.

[5] = Plasma lipids, lipoproteins and liver weight in normal rats versus fibrates (Example 8); assay type: in vivo, rat; details: once daily p.o. 7 days
Text: The study design was based on the protocols used in Examples 1-3. Male Sprague-Dawley rats were provided normal chow ad libitum, both before and during the study period. […] Six rats were assigned to each treatment group (8 to the vehicle control). The study terminated on the day following administration of the seventh dose (day 8), with terminal blood collected for plasma lipid and lipoprotein analyses including LC-MS-based determination of lipid profiles, total and free cholesterol analyses, and lipoprotein cholesterol determinations (VLDL, LDL and HDL).
In order to elucidate the impact of romazarit on plasma lipoproteins, an ultraviolet (UV) size exclusion chromatography (SEC) system was used to separate plasma into broad lipoprotein-containing fractions that were based on relative retention times of human VLDL (very low density lipoprotein), LDL (low density lipoprotein), and HDL (high density lipoprotein) standards. These fractions were collected for cholesterol assays and the UV chromatograms were integrated to provide relative quantitation of the three lipoprotein types. It is important to note that since the UV absorbance measurement is not specific for lipoproteins and may also derive from other plasma constituents that co-elute with a particular lipoprotein, the relative quantitation data reported here is an approximation. The HDL fraction in particular may have included such co-eluting species, as evidenced by the relatively high integrated area values for this fraction.

rat PPARα = biological target: T1, rat PPARα (Rattus norvegicus, UniProt P37230); assay: PPARRE-luciferase reporter in HepG2 cells transfected with rat PPARα; assay type: cell-based; details: retinoic acid 200 nM, read-out: EC50 activation of rat PPARα (rPPARα)
T1 construct: expressed in transfected cells; host or cells: HepG2
T1 sequence (P37230 1-468): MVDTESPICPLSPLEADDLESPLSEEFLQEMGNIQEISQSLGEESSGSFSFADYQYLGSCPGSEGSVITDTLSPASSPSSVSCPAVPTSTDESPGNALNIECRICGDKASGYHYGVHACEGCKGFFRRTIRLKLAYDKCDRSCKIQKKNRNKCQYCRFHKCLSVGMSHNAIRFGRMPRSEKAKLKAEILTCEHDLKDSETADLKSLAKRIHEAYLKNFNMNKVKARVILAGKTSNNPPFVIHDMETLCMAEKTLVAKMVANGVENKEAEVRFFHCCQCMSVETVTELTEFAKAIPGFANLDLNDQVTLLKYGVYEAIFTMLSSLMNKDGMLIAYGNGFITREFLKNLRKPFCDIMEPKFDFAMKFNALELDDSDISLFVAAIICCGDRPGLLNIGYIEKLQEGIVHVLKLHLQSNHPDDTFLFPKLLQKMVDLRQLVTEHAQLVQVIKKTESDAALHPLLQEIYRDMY
Method: For this study, a luciferase reporter plasmid containing 5 copies of a defined genetic regulatory PPARα response element (PPARRE) was utilized to detect romazarit-induced PPARRE activation in presence of a co-activator, retinoic acid. Specifically, HepG2 cells were transfected with expression vectors for either human or rat PPARα and the PPARRE-luciferase reporter plasmid. After 24 hours, the cells were trypsanized and subsequently seeded in 96-well clear-bottom plates at a density of 1.0×10^5 cells/ml.

[6] = 50 mg/kg b.i.d. p.o., second experiment
[7] = 5 and 50 mg/kg b.i.d. p.o., initial experiment
[8] = DIO rats, 50 mg/kg once daily p.o.
[9] = DIO rats, 100 mg/kg once daily p.o.

Cc1nc(-c2ccc(Cl)cc2)oc1COC(C)(C)C(=O)O [romazarit, 2-[[2-(4-chlorophenyl)-4-methyl-5-oxazolyl]methoxy]-2-methylpropanoic acid]
plasma amino acids [1, 6]: generally similar to those for the same dose in the initial experiment | plasma thyroxine [1, 6]: generally similar to those for the same dose in the initial experiment | levels of common amino acids in plasma [1, 7]: small but significant lowering | plasma thyroxine (T4) [1, 7]: concomitant decrease | weight gain ([2]; 15 mg/kg b.i.d. p.o., second experiment): generally similar to that seen in the initial experiment with the 5 mg/kg dose | weight gain ([2]; 50 mg/kg b.i.d. p.o., initial experiment): dramatic inhibition of weight gain | weight gain [2, 6]: not only inhibited weight gain, but even resulted in weight loss | food consumption ([3]; DIO rats, 15 mg/kg once daily p.o., throughout the dosing period): comparable to the vehicle control | day by which food consumption returned to levels comparable to the vehicle control [3, 8]: ≤ 15 days | day of minimum food consumption [3, 8]: 6 days | body weight loss by comparison with the vehicle control ([3]; DIO rats, 50 mg/kg once daily p.o., day 16): 10.3% | body weight loss by comparison with the vehicle control ([3]; DIO rats, 50 mg/kg once daily p.o., day 23): 4.6% | food consumption ([3]; DIO rats, 50 mg/kg once daily p.o., first 13 days of the dosing period): significantly less than the vehicle control | day by which food consumption returned to levels comparable to the vehicle control [3, 9]: ≤ 15 days | day of minimum food consumption [3, 9]: 8 days | body weight loss by comparison with the vehicle control (maximum) ([3]; DIO rats, 100 mg/kg once daily p.o., day 16): 16% | body weight loss by comparison with the vehicle control ([3]; DIO rats, 100 mg/kg once daily p.o., end of study (day 23)): 13.3% | food consumption ([3]; DIO rats, 100 mg/kg once daily p.o., first 13 days of the dosing period): significantly less than the vehicle control | liver weight ([3]; 15 mg/kg): No increase in liver weight | liver weight ([3]; 50 mg/kg): Increased liver weight | liver weight ([3]; 100 mg/kg): Increased liver weight | HDL [4]: did not significantly affect | total cholesterol [4]: did not significantly affect | total plasma triglycerides [4]: tendency likewise to reduce total plasma triglycerides at higher doses | weight gain [4]: None of the romazarit or fenofibrate treatments reduced weight gain | whole blood glucose levels [4]: no such effect was seen | potency in lowering plasma free fatty acids compared to the other compounds tested ([5]; 50 and 100 mg/kg): superior potency | plasma cholesterol esters ([5]; 50 and 100 mg/kg (romazarit also 10 mg/kg)): increased at least some fractions of plasma cholesterol esters | plasma free fatty acids ([5]; romazarit 10, 50 and 100 mg/kg): lowered plasma free fatty acids in a dose-dependent manner | plasma triglycerides ([5]; romazarit 10, 50 and 100 mg/kg): significantly lowered | EC50 (rat PPARα): ~200 µM
